One assay relates to Ratten. Put plainly: Mean arterial blood pressure in pentobarbital-anaesthetised rats, 10 min i.v. infusion as lipid emulsion. It counts as in vivo. The conditions noted are these: mean arterial pressure in % of baseline, mean of 4 rats. On the procedure:
So wurde an durch intraperitoneale Injektion von 60 mg/kg Natriumpentobarbital narkotisierten Ratten über einen Carotis-Katheter mit Hilfe eines Druckübermittlers der Blutdruck überwacht. Den Tieren (in Gruppen von je 4 Tieren) wurden dann für jeweils 10 Minuten über einen in die rechte vena femoralis eingesetzten Katheter • 1) 10,0 µg/kg/min der Verbindung A (R₁ = H) • 2) 9,6 µg/kg/min der Verbindung B (R₁ = H) • 3) 6,2 µg/kg/min des Esters der Formel I (X = 0) bzw. • 4) 10,5 µg/kg/min des Esters der Formel I (X = CH₂) injiziert, wobei diese Verbindungen in Form einer Lipidemulsion (vgl. Mizushima et al. J. Pharm. Pharmacol. 34 (1982) 49 - 50 und Ann. Rheum. Dis. 41 (1982) 263 - 267) zur Anwendung kamen. Dabei ergaben sich fol gende Werte des mittleren arteriellen Blutdrucks (in % des Ausgangswertes; jeweils als Mittelwert für die Tiere einer Gruppe): […]

In assay [1] the test system is ADP-induzierten Thrombozytenaggregation. Put plainly: ADP-induced platelet aggregation (platelet count fall) in the urethane-anaesthetised rat after oral dosing. Type of assay: in vivo, Ratte. As to conditions: 100 µg/kg ADP i.v. bolus. On the procedure: Zur Bestimmung der ADP-induzierten Thrombozytenaggregation an der Urethan-narkotisierten Ratte nach oraler Gabe der Vergleichssubstanzen wurde den Tieren ein Carotis-Katheter eingesetzt und über diesen kontinuierlich Blut entnommen. Nach Zumischen von Natriumzitrat wurde in einem Technicon-Thrombocounter die Thrombozytenzahl bestimmt. 15 Minuten und unmittelbar vor der Gabe der Prüfsubstanz sowie 15, 30, 45 und 60 min. nach der Prüfsubstanzgabe wurden über die vena jugularis jeweils 100 µg/kg ADP als Bolus injiziert und der Thrombozytenabfall unter der ADP-Injektion bestimmt. Der Mittelwert der beiden Werte vor der Prüfsubstanzgabe wurde als Ausgangs-Kontrollwert genommen und die Werte nach Prüfsubstanzgabe als %-Änderung gegenüber diesem Wert bestimmt.

The subject of assay [2] is menschlichen Blutplättchen. As to conditions: aggregation induced by various agents; compared with natural Prostacyclin; cited from earlier work.
Assay [3] concerns durch ADP induzierten Blutplättchenaggregation. The conditions noted are these: rat plasma; in % of the effect of the free acid; cited from earlier work.
In another assay the test system is Hunden. The conditions noted are these: dogs; potency in % of the free acid; cited from earlier work.
Where [4] appears, read: 15 min after oral dose of 10 mg/kg.
Where [5] appears, read: 30 min after oral dose of 10 mg/kg.
Where [6] appears, read: 45 min after oral dose of 10 mg/kg.
The mark [7] stands for this setting: 60 min after oral dose of 10 mg/kg.

Consider `O=C(O)c1cccc(/C=C2/C[C@@H]3[C@@H](/C=C/[C@@H](O)C4CCCCC4)[C@H](O)C[C@@H]3O2)c1` (relative stereo) [A (R₁ = H), 2-Oxa-3Z-(m-carboxybenzyliden)-6β-(3′-S-hydroxy-3′cyclohexyl-1′E-propenyl)-7α-hydroxy-cis-bicyclo[3.3.0] octan, reference compound], for which the “Relativer Blutdruck (%) Minuten nach Injektionsbeginn” value turned out to be 64% in the assay with Ratten (5 min, 10,0 µg/kg/min i.v. for 10 min); 65% in the assay on Ratten (10 min, 10,0 µg/kg/min i.v. for 10 min); 94% in the assay on Ratten (20 min, 10,0 µg/kg/min i.v. for 10 min).

`O=C(O)c1cccc(/C=C2\C[C@H]3C[C@@H](O)[C@H](/C=C/[C@@H](O)C4CCCCC4)[C@H]3C2)c1` (relative stereo) [B(R₁=H), 3E-(m-Carboxybenzyliden)-6β-(3′S-hydroxy-3′-cyclohexyl-1′E-propenyl)-7α-hydroxy-cis-bicyclo-[3.3.0]octan, reference compound]: the “Relativer Blutdruck (%) Minuten nach Injektionsbeginn” value amounted to 80% in the assay with Ratten (5 min, 9,6 µg/kg/min i.v. for 10 min); 84% in the assay on Ratten (10 min, 9,6 µg/kg/min i.v. for 10 min); 105% in the assay on Ratten (20 min, 9,6 µg/kg/min i.v. for 10 min). Moreover, the “Thrombozytenaggregationshemmung in % des Ausgangskontrollwertes nach Minuten” value in assay [1] (setting [4]) was 68,9±6,8%; in assay [1] (setting [5]), 55,1±6,7%; in assay [1] (setting [6]), 51,8±6,4%; in assay [1] (setting [7]), 38,1±6,3%.

On to `CCCCCC(O)C#CC1C(O)CC2OC(=CCCCC(=O)OC)CC21` (stereo not drawn) [13,14-Dehydroprostacyclinmethylester], for which, in assay [2], the “Aggregationshemmung von menschlichen Blutplättchen” value is “ähnlich wirksam”.

Consider `CC(C)(C)C(=O)OCOC(=O)c1cccc(/C=C2/C[C@@H]3[C@@H](/C=C/[C@@H](O)C4CCCCC4)[C@H](O)C[C@@H]3O2)c1` [I (X = 0), 2-Oxa-3Z-(m-pivaloyloxymethyloxycarbonyl-benzyliden)-6β-(3′S-hydroxy-3′-cyclohexyl-1′E-propenyl)-7α-hydroxy-cis-bicyclo[3.3.0]octan], for which the “Relativer Blutdruck (%) Minuten nach Injektionsbeginn” value with Ratten (5 min, 6,2 µg/kg/min i.v. for 10 min) was determined as 58%; in the assay with Ratten (10 min, 6,2 µg/kg/min i.v. for 10 min), 62%; in the assay on Ratten (20 min, 6,2 µg/kg/min i.v. for 10 min) it was 81%.

As to `CC(C)(C)C(=O)OCOC(=O)c1cccc(/C=C2\C[C@H]3C[C@@H](O)[C@H](/C=C/[C@@H](O)C4CCCCC4)[C@H]3C2)c1` [I(X=CH₂), 3E-(m-Pivaloyloxymethyloxycarbonyl-benzyliden)-6β-(3′S-hydroxy-3′-cyclohexyl-1′E-propenyl)-7α hydroxy-cis-bicyclo[3.3.0]octan], the “Relativer Blutdruck (%) Minuten nach Injektionsbeginn” value is reported as 62% with Ratten (5 min, 10,5 µg/kg/min i.v. for 10 min); 51% with Ratten (10 min, 10,5 µg/kg/min i.v. for 10 min); 69% in the assay with Ratten (20 min, 10,5 µg/kg/min i.v. for 10 min). For the same compound, the “Thrombozytenaggregationshemmung in % des Ausgangskontrollwertes nach Minuten” value is listed as 24,0±3,0% in assay [1] (setting [4]); 59,4±3,0% in assay [1] (15 min after oral dose of 100 mg/kg); 28,1±3,8% in assay [1] (setting [5]); 63,3±6,8% in assay [1] (30 min after oral dose of 100 mg/kg); 29,1±3,9% in assay [1] (setting [6]); 68,1±2,0% in assay [1] (45 min after oral dose of 100 mg/kg). The “Thrombozytenaggregationshemmung in % des Ausgangskontrollwertes nach Minuten” value in assay [1] (setting [7]) is reported as 30,3±4,6%; in assay [1] (60 min after oral dose of 100 mg/kg), 71,0±4,4%.

As for `CCCCCC(O)/C=C/C1C(O)CC2CC(=CCCCC(=O)OC)CC21` (stereo not drawn) [Methylester der (5EZ,13E)(9α,11α,15α)-6,9-methano-11,15-dihydroxyprosta-5,13-diensäure], in assay [3], the “Hemmung der durch ADP induzierten Blutplättchenaggregation, Wirkung relativ zur freien Säure” value was ~80%. The “Wirkung auf den Blutdruck, relativ zur freien Säure” value in the assay on Hunden is 50 - 60%.

(Values after patent publication EP0396024A2, “Esters, medicaments containing them and preparation of these esters and medicaments” (Grünenthal GmbH, priority 1989, dated 1990).)
